The values below are quoted from earlier work in US11022607B2, “Compound-carrier systems for assays in nematodes” (Assistance Publique—Hôpitaux de Paris, priority 2013, dated 2021).

The series relates to C. elegans. The conditions noted are these: 25 ml of liposomes containing 50 mg of uranin; in 3 h.

As to `O=C([O-])c1ccccc1-c1c2ccc(=O)cc-2oc2cc([O-])ccc12.[Na+].[Na+]` [uranin], the “amount of fluorescent dye absorption, compared with worms administered dye by conventional methods” value is reported as 100 fold.
